The record followed here is patent US7902367B2, “Cyclic amino benzoic acid derivative” (Kyorin Pharmaceutical Co., Ltd., priority 2004, dated 2011).

This assay concerns the target T1, human PPARα (Homo sapiens, UniProt Q07869).
T1 construct: expressed in transfected cells; host or cells: CHO-K1 cells
T1 sequence (Q07869 239-466 limits assumed): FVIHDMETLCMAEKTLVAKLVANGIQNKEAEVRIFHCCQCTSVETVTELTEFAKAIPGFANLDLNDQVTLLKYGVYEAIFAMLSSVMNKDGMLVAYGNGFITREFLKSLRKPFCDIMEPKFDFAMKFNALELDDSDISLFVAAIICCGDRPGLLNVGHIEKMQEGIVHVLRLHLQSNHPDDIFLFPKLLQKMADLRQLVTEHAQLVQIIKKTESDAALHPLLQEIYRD
Put plainly: Activation of transcription of human PPARα (Gal4-PPARα LBD luciferase reporter assay in CHO-K1 cells). The assay is classed as cell-based. Conditions: CHO-K1 cells cotransfected with Gal4 DNA-binding domain/human PPARα ligand-binding domain receptor plasmid, firefly luciferase reporter and renilla internal standard; 20 hours at 37° C. The text has this: Activation of Transcription of Human Peroxisome Proliferator-Activated Receptor (PPAR) α
CHO-K1 cells cultured in Ham's F12 medium supplemented with 10% fetal calf serum were cotransfected with the following plasmids: A receptor plasmid encoding a fusion protein consisting of the DNA-binding domain of yeast transcription factor Gal4 fused to the ligand-binding domain of human PPARα (Biochemistry, 1993, 32, 5598), a reporter plasmid (STRATAGENE, firefly luciferase reporter plasmid), and a renilla luciferase plasmid for internal standard (Promega). The cotransfection was performed over a 2-hour period by using Lipofectamine (INVITROGEN) in the absence of serum. Subsequently, a test compound was added in Ham's F12 medium supplemented with 10% defatted bovine serum. The cells were then incubated at 37° C. for 20 hours. The activity of each luciferase was then determined and corrected for internal standard.
Regarding `Cc1nc(-c2ccc(Cl)cc2)sc1C(=O)NCC1CCCN(c2ccccc2C(=O)O)C1` (stereo not shown) [Example 18, 2-[3-[[2-(4-Chlorophenyl)-4-methylthiazol-5-yl]carbonylaminomethyl]piperidin-1-yl]benzoic acid], the midpoint of the response, the EC50, lay at 0.065 µM.

With `Cc1nc(-c2ccc(Cl)cc2)sc1C(=O)NCC1CCCN(c2cccc(C(=O)O)c2)C1` (stereo not shown) [Example 19], the midpoint of the response, the EC50, lay at 0.97 µM.

Consider `Cc1nc(-c2ccc(Cl)cc2)sc1CNC(=O)C1CCCN(c2ccccc2C(=O)O)C1` (stereo not shown) [Example 20], for which a half-maximal effect (EC50) was put at 1.36 µM.

As to `Cc1nc(-c2ccc(Cl)cc2)sc1COCC1CCCN(c2ccccc2C(=O)O)C1` (stereo not shown) [Example 22], the EC50 (as a rule, the concentration that produces a half-maximal response) was 0.16 µM.

`Cc1nc(-c2ccc(Cl)cc2)sc1COCC1CCCN(c2cccc(C(=O)O)c2)C1` (stereo not shown) [Example 24] registered a concentration giving a half-maximal response (EC50) of 1.54 µM.

Take `Cc1nc(-c2ccc(Cl)cc2)sc1COC1CCCN(c2cccc(C(=O)O)c2)C1` (stereo not shown) [Example 25]: the EC50 came to 0.56 µM.

Compound `Cc1nc(-c2ccc(Cl)cc2)sc1C(=O)NC1CCCN(c2cccc(C(=O)O)c2)C1` (stereo not shown) [Example 32] displayed an EC50 of 0.02 µM.
